pEC50, pIC50: −log10 of the molar value.
Columns and labels:
[1] = molecular target: T1, GLS1 (purified recombinant human GAC) (Homo sapiens, UniProt O94925); experiment: GLS1 enzymatic activity assay (dual-coupled, Amplex UltraRed/resorufin); format: biochemical
T1 sequence (O94925 55-598 isoform O94925-3 limits assumed): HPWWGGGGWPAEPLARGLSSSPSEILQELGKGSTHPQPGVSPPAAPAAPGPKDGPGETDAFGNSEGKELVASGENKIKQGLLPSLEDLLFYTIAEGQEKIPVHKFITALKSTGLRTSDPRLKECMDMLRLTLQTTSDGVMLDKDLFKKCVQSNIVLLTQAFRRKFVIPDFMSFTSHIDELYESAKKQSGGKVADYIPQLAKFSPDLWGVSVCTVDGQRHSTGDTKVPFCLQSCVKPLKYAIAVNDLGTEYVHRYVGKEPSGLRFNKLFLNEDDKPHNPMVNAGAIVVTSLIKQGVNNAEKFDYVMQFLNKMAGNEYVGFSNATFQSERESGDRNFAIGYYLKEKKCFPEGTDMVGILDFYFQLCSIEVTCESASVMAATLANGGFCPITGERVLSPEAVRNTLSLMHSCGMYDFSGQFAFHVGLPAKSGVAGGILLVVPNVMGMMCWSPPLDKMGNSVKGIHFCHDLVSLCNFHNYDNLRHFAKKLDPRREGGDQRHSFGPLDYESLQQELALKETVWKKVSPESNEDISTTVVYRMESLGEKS
How it was run: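 GAC activity measured by coupling glutamate to glutamate oxidase and HRP, generating resorufin from Amplex UltraRed. Enzyme (2 nM) preincubated with 50 mM potassium phosphate 10 min at room temperature, then inhibitor 10 min; 1 mM glutamine substrate, 1% DMSO. Fluorescence 530/590 nm, kinetic or 20-min endpoint; IC50 from four-parameter logistic fit.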

[2] = test system: A549 cells; experiment: A549 proliferation (viability) assay, Cell Titer Fluor, 72 hours; format: cell-based; conditions: Homo sapiens
How it was run: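 A549 cells seeded at 1000 cells/well, left 24 h, then exposed to compound for 72 h at 37 °C, 5% CO2, final DMSO 0.5% (v/v). Viability read by Cell Titer Fluor fluorescence; EC50 from four-parameter logistic fit.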

Row | SMILES | pIC50 [1] | pEC50 [2]
1 | O=C(NCc1cc(C(F)(F)F)ccn1)c1cn(CC(F)CCn2ccc(COc3cccc(OC(F)(F)F)c3)cc2=O)nn1 (stereo not shown) [Example 483, 1-(2-fluoro-4-{2-oxo-4-[3-(trifluoromethoxy)phenoxymethyl]-1,2-dihydropyridin-1-yl}butyl)-N-{[4-(trifluoromethyl)pyridin-2-yl]methyl}-1H-1,2,3-triazole-4-carboxamide] | > 7.00 | 6.30 to 7.00
2 | O=C(NCc1cc(C(F)(F)F)ccn1)c1cn(CC(F)CCn2ccc(COc3ccc(F)cc3F)cc2=O)nn1 (stereo not shown) [Example 484, 1-{4-[4-(2,4-difluorophenoxymethyl)-2-oxo-1,2-dihydropyridin-1-yl]-2-fluorobutyl}-N-{[4-(trifluoromethyl)pyridin-2-yl]methyl}-1H-1,2,3-triazole-4-carboxamide] | > 7.00 | 6.30 to 7.00
3 | O=C(NCc1cc(C(F)(F)F)ccn1)c1cn(CC(F)CCn2ccc(COc3c(F)cccc3F)cc2=O)nn1 (stereo not shown) [Example 485, 1-{4-[4-(2,6-difluorophenoxymethyl)-2-oxo-1,2-dihydropyridin-1-yl]-2-fluorobutyl}-N-{[4-(trifluoromethyl)pyridin-2-yl]methyl}-1H-1,2,3-triazole-4-carboxamide] | 6.30 to 7.00 | 6.30 to 7.00
4 | O=C(NCc1cc(C(F)(F)F)ccn1)c1cn(CC(F)CCn2ccc(COc3ccc(Cl)cc3)cc2=O)nn1 (stereo not shown) [Example 486, 1-{4-[4-(4-chlorophenoxymethyl)-2-oxo-1,2-dihydropyridin-1-yl]-2-fluorobutyl}-N-{[4-(trifluoromethyl)pyridin-2-yl]methyl}-1H-1,2,3-triazole-4-carboxamide] | > 7.00 | > 7.00
5 | O=C(NCc1cc(C(F)(F)F)ccn1)c1cn(CC(F)CCn2ccc(COc3ccccc3F)cc2=O)nn1 (stereo not shown) [Example 487, 1-{2-fluoro-4-[4-(2-fluorophenoxymethyl)-2-oxo-1,2-dihydropyridin-1-yl]butyl}-N-{[4-(trifluoromethyl)pyridin-2-yl]methyl}-1H-1,2,3-triazole-4-carboxamide] | 6.30 to 7.00 | 6.30 to 7.00
6 | O=C(Nc1ccn(CCC(F)Cn2cc(C(=O)NCc3cc(C(F)(F)F)ccn3)nn2)c(=O)n1)OCc1ccccc1 (stereo not shown) [Example 488, benzyl N-(1-{3-fluoro-4-[4-({[4-(trifluoromethyl)pyridin-2-yl]methyl}carbamoyl)-1H-1,2,3-triazol-1-yl]butyl}-2-oxo-1,2-dihydropyrimidin-4-yl)carbamate] | > 7.00 | > 7.00
7 | O=C(Nc1ccn(CCC(F)Cn2cc(C(=O)NCc3cccc(OC(F)(F)F)c3)nn2)c(=O)n1)OCc1ccccc1F (stereo not shown) [Example 489, (2-fluorophenyl)methyl N-(1-{3-fluoro-4-[4-({[3-(trifluoro-methoxy)phenyl]methyl}carbamoyl)-1H-1,2,3-triazol-1-yl]butyl}-2-oxo-1,2-dihydropyrimidin-4-yl)carbamate] | > 7.00 | > 7.00
8 | CC(C)COC(=O)Nc1ccn(CCC(F)Cn2cc(C(=O)NCc3cc(C(F)(F)F)ccn3)nn2)c(=O)n1 (stereo not shown) [Example 490, 2-methylpropyl N-(1-{3-fluoro-4-[4-({[4-(trifluoromethyl)pyridin-2-yl]methyl}carbamoyl)-1H-1,2,3-triazol-1-yl]butyl}-2-oxo-1,2-dihydropyrimidin-4-yl)carbamate] | > 7.00 | 6.30 to 7.00
9 | O=C(Nc1ccn(CCC(F)Cn2cc(C(=O)NCc3cccc(OC(F)(F)F)c3)nn2)c(=O)n1)OCc1cccc(OC(F)(F)F)c1 (stereo not shown) [Example 491, 3-(trifluoromethoxy)benzyl(1-(3-fluoro-4-(4-((3-(trifluoromethoxy)benzyl)carbamoyl)-1H-1,2,3-triazol-1-yl)butyl)-2-oxo-1,2-dihydropyrimidin-4-yl)carbamate] | > 7.00 | > 7.00

Further lines, results first:

Row | pIC50 [1] | pEC50 [2] | SMILES
10 | > 7.00 | > 7.00 | CC(C)(C)COC(=O)Nc1ccn(CCC(F)Cn2cc(C(=O)NCc3cc(C(F)(F)F)ccn3)nn2)c(=O)n1 (stereo not shown) [Example 492, 2,2-dimethylpropyl N-(1-{3-fluoro-4-[4-({[4-(trifluoromethyl)pyridin-2-yl]methyl}carbamoyl)-1H-1,2,3-triazol-1-yl]butyl}-2-oxo-1,2-dihydropyrimidin-4-yl)carbamate]
11 | > 7.00 | > 7.00 | CC(C)(C)COC(=O)Nc1ccn(CCC(F)Cn2cc(C(=O)NCc3cccc(OC(F)(F)F)c3)nn2)c(=O)n1 (stereo not shown) [Example 493, 2,2-dimethylpropyl N-(1-{3-fluoro-4-[4-({[3-(trifluoro-methoxy)phenyl]methyl}carbamoyl)-1H-1,2,3-triazol-1-yl]butyl}-2-oxo-1,2-dihydropyrimidin-4-yl)carbamate]
12 | 5.30 to 6.30 | < 5.30 | O=C(NCc1cc(C(F)(F)F)ccn1)c1cn(CC(F)CCn2ccc(Cn3ccccc3=O)cc2=O)nn1 (stereo not shown) [Example 494, 1-(2-fluoro-4-{2-oxo-4-[(2-oxo-1,2-dihydropyridin-1-yl)methyl]-1,2-dihydropyridin-1-yl}butyl)-N-{[4-(trifluoromethyl)pyridin-2-yl]methyl}-1H-1,2,3-triazole-4-carboxamide]
13 | > 7.00 | 5.30 to 6.30 | O=C(Nc1ccn(CCC(F)Cn2cc(C(=O)NCc3cc(C(F)(F)F)ccn3)nn2)c(=O)n1)OC1CCC(F)(F)CC1 (stereo not shown) [Example 495, 4,4-difluorocyclohexyl N-(1-{3-fluoro-4-[4-({[4-(trifluoromethyl)pyridin-2-yl]methyl}carbamoyl)-1H-1,2,3-triazol-1-yl]butyl}-2-oxo-1,2-dihydropyrimidin-4-yl)carbamate]
14 | 5.30 to 6.30 | < 5.30 | O=C(Nc1ccn(CCC(F)Cn2cc(C(=O)NCc3cc(C(F)(F)F)ccn3)nn2)c(=O)n1)NC1CCC1 (stereo not shown) [Example 496, 1-(4-{4-[(cyclobutylcarbamoyl)amino]-2-oxo-1,2-dihydropyrimidin-1-yl}-2-fluorobutyl)-N-{[4-(trifluoromethyl)pyridin-2-yl]methyl}-1H-1,2,3-triazole-4-carboxamide]
15 | > 7.00 | 6.30 to 7.00 | CC(OC(=O)Nc1ccn(CCC(F)Cn2cc(C(=O)NCc3cccc(OC(F)(F)F)c3)nn2)c(=O)n1)c1ccccc1 (stereo not shown) [Example 497, 1-phenylethyl N-(1-{3-fluoro-4-[4-({[3-(trifluoromethoxy)phenyl]methyl}carbamoyl)-1H-1,2,3-triazol-1-yl]butyl}-2-oxo-1,2-dihydropyrimidin-4-yl)carbamate]
16 | > 7.00 | > 7.00 | O=C(Nc1ccn(CCC(F)Cn2cc(C(=O)NCc3cccc(OC(F)(F)F)c3)nn2)c(=O)n1)OC1CCC(F)(F)CC1 (stereo not shown) [Example 498, 4,4-difluorocyclohexyl N-(1-{3-fluoro-4-[4-({[3-(trifluoro-methoxy)phenyl]methyl}carbamoyl)-1H-1,2,3-triazol-1-yl]butyl}-2-oxo-1,2-dihydropyrimidin-4-yl)carbamate]
17 | 5.30 to 6.30 | < 5.30 | O=C(Nc1ccn(CCC(F)Cn2cc(C(=O)NCc3cccc(OC(F)(F)F)c3)nn2)c(=O)n1)NC1CCC1 (stereo not shown) [Example 499, 1-(4-{4-[(cyclobutylcarbamoyl)amino]-2-oxo-1,2-dihydropyrimidin-1-yl}-2-fluorobutyl)-N-{[3-(trifluoromethoxy)phenyl]methyl}-1H-1,2,3-triazole-4-carboxamide]

Source: patent US20160002204A1 (Board of Regents, The University of Texas System, priority 2014, published 2016)
